According to US11359178B2, “Method for producing parasympathetic neurons” (NATIONAL INSTITUTE OF ADVANCED INDUSTRIAL SCIENCE AND …, priority 2018, dated 2022):

Tests used:
[1] = test system: autonomic neural progenitor cells; test: Induction of autonomic neural progenitor cells to differentiate into parasympathetic neurons, immune cell staining (TH, ChAT, PHOX2B, MAP2); assay type: cell-based, Human
Procedure: A 24-well plate coated with poly-L-ornithine and laminin was prepared by the following procedure. The plate was coated for one hour with a PLO solution (20 μg/mL) prepared with DW, washed once with DW, and coated for two hours with a laminin solution (5 μg/mL) prepared with PBS. Subsequently, the N2 medium was supplemented with 10 μM FSK, 10 ng/mL BDNF, 10 ng/mL GDNF, 10 ng/mL NT-3, 10 ng/mL NGF, and 50 μg/mL Ascorbic Acid (all final concentrations) to prepare a neural differentiation medium (NDM).
The following four kinds of differentiation-inducing media were prepared using NDM:
Differentiation-inducing medium 1: NDM+10 ng/mL PMA (final concentration)
Differentiation-inducing medium 2: NDM+1 μM RA (final concentration)
Differentiation-inducing medium 3: NDM+10 ng/mL PMA+1 μM RA (both final concentrations)
Differentiation-inducing medium 4: NDM only (by a known method)
The autonomic neural progenitor cells obtained by the above-described Step 5 were washed once with PBS, followed by addition of TrypLE Express Enzyme (250 μL/well), and cells were exfoliated by incubating the medium for five minutes. 10% FBS-containing DMEM was added to terminate the enzyme reaction, and the cells were collected in a centrifuge tube. After the medium was centrifuged at 200×g for four minutes, the supernatant was removed, cells were suspended with NDM, and the cells were counted. […] The media cultured for at least 20 days from the start of culturing with the differentiation-inducing media 1 to 4 were analyzed by immune staining and intracellular calcium imaging following the procedure described below. […]
The primary antibody solution was removed, and the plate was washed twice with 0.2% Tween 20/PBS, followed by addition of a secondary antibody/Can Get Signal Solution A (1000-fold diluted Alexa Fluro488 or 1000-fold diluted Alexa Fluor555) or 3000-fold diluted Hoechst 33342 solution, and the mixture was allowed to stand for one hour at room temperature. The secondary antibody solution was removed, and the plate was washed twice with 0.2% Tween 20/PBS and then observed under a fluorescence microscope.

GATA3 = conditions: Yamashita et al. 2002; Th2 cell differentiation; cited from earlier work
[2] = test system: parasympathetic neurons obtained by culturing in the differentiation-inducing medium 3 (NDM+PMA+RA); conditions: nicotine 1 μM; neurons induced in NDM+PMA+RA, 13th to 37th day from start of culturing
Procedure: Furthermore, response to nicotine stimulation for parasympathetic neurons obtained by culturing in the differentiation-inducing medium 3 (NDM+PMA+RA) was assessed by intracellular calcium imaging. 1 mg/mL Fluo-4 AM (Invitrogen, F14201)/DMSO was directly added to a medium on the differentiation induction culture 24th day at a final concentration of 5 μg/mL. After incubation in an incubator (37° C., 5% CO2) for 30 minutes, the medium was removed and replaced with Ringer's solution (149 mM NaCl, 2.8 mM KCl, 2 mM CaCl2, 1 mM MgCl2, 10 mM HEPES, 10 mM D-(+)-glucose [pH 7.4]), and changes in the intracellular calcium concentrations were measured by detecting changes in the fluorescence intensity. For the measurement, 300 frames were photographed at a frame rate of 2 fps using an Olympus microscope (IX81), EMCCD (Andor iXon), and MetaMorph Software (Molecular Devices). Additionally, nicotine stimulation was performed by adding nicotine to Ringer's solution at a final concentration of 1 μM. ImageJ was used for data analysis after measurement.

[3] = differentiation induction 13th to 87th day from start of culturing, 10 ng/mL PMA and/or 1 μM RA in NDM, compared with NDM only (FIG. 2)

| SMILES | differentiation induction efficiency ([1]; 13th to 87th day, single additive in NDM, compared with NDM only) | ChAT positive cells (parasympathetic neuron marker) [1, 3] | TH positive cells (sympathetic neuron marker) [1, 3] | expression of transcription factor GATA3 (GATA3) | response to nicotine stimulation (intracellular calcium, Fluo-4 AM fluorescence) [2] |
| --- | --- | --- | --- | --- | --- |
| CCCCCCCCCCCCCC(=O)O[C@@H]1[C@@H](C)[C@@]2(O)[C@@H](C=C(CO)C[C@]3(O)C(=O)C(C)=C[C@@H]23)[C@@H]2C(C)(C)[C@]12OC(C)=O [PMA, Phorbol 12-myristate 13-acetate] | reduced | markedly reduced | markedly reduced | enhance | – |
| CN1CCCC1c1cccnc1 (single isomer, unassigned; (-)) [nicotine, (−)-Nicotine] | – | – | – | – | strong response |
